Experimental data as given in patent publication US11952360B2, “Dibenzothiophene compounds” (Saint Louis University, priority 2019, dated 2024).

Tests used:
[1] = system: HeLa cells; assay: Fluorescence imaging of HeLa cells with CellMask Orange co-stain (colocalization); type: cell-based; conditions: for cellular localization: HeLa cells co-stained with CellMask Orange, 10 minutes; for Pearson correlation coefficient with CellMask Orange: HeLa cells, 10 minutes incubation, single cell image, DAPI vs Cy-5 filter sets
Method: (§1) All images were captured with a Leica DM 400 B microscope with a DFC3000G camera (Leica Microsystems, Germany) and 63× oil immersion or 40× lenses. HeLa cells were staged according to the aforementioned methods. Leica LASX Core Software (Leica Microsystems, Germany) was used to acquire the images. All images were processed using ImageJ. The Pearson correlation coefficient was calculated using the image of a single cell using an ImageJ plugin called Colocalization Finder by Christophe Laummonerie and Jerome Mutterer of Institut de Biologie Moleculaire des Plantes.
To further optimize staining and understand the localization of the dyes in HeLa cells, a co-stain was introduced to the cells with the dyes while also utilizing a shorter incubation time. Sterile glass poly-D-lysine coated #1.5 cover slips (NeuVitro), pre-incubated with culture medium, were placed in sterile 6-well plates. A single cell suspension of the HeLa (cervical cancer cells) cell line was prepared at 5×10^4 cells ml-1 in the appropriate medium. Volumes of 2.0 mL were pipetted into each of the wells containing the coverslips. The 6-well plate was left overnight at 37.0° C. in a 5.0% CO2 incubator. Following the overnight incubation, the plate was aspirated and PBS, containing the CellMask Orange (ThermoFischer Scientific) (at 1000× dilution with 0.10% DMSO) in a volume of 1.8 mL, was gently pipetted onto the cell monolayers attached to the glass cover slips. To the CellMask doped PBS 200 μl of 4 or 9 at 50 μM was added to the respective well. Cells on the cover slips were exposed to the dye for approximately 10 minutes. Cells were washed with PBS and treated with 4.0% paraformaldehyde solution prepared in PBS, incubated for 30 minutes at room temperature for full fixation. Three washes with 1 ml of PBS were completed to ensure excess solution was rinsed away. Glass cover slips were removed and mounted on slides with ProLong Gold Antifade Mountant (ThermoFisher Scientific). The specimen was dried for several minutes and sealed with clear nail polish before visualized under a microscope.
The modest modification came in two parts; the PBS used to replace the media was now doped with a 1000× dilution of CellMask Orange (plasma membrane dye) and the incubation time for the co-stain and dyes was shortened to 10 minutes. These subtle modifications were done to determine if the dyes, 4 and 9, could be used with short incubation periods and to follow the manufacture's staining instructions for CellMask Orange. […] CellMask Orange is a known dye which readily localizes in the plasma membrane. […] The overlap was quantified using a Pearson correlation coefficient calculation with the Colocalization Finder plugin for ImageJ using a single cell image cropped from the images. […]

[2] = system: HeLa cells; assay: Fluorescence imaging of HeLa cells without co-stain; type: cell-based; conditions: 5.0 uM dye, approximately 2 hours, no co-stain
Method: as §1
Sterile glass poly-D-lysine coated #1.5 cover slips (NeuVitro), pre-incubated with culture medium, were placed in sterile 6-well plates. A single cell suspension of the HeLa (cervical cancer cell) cell line was prepared at 5×10^4 cells mL^−1 in the appropriate medium. Volumes of 2.0 mL were pipetted into each of the wells containing the coverslips. The 6-well plate was left overnight at 37.0° C. in a 5.0% CO2 incubator. Following the overnight incubation, the plate was aspirated dry and then PBS, containing the drug (at 5.0 uM and 0.10% DMSO) in a volume of 2.0 mL, was gently pipetted onto the cell monolayers attached to the glass cover slips. Cells on the cover slips were exposed to the dye for approximately 2 hours in the incubator at 37.0° C. in a 5.0% CO2. […]

[3] = UV/visible absorbance spectra in acetonitrile; type: physicochemical; conditions: for molar absorptivity: 0.01 mM solutions in HPLC grade acetonitrile; for λabs (absorbance maxima): Measured in CAN
Method: (§2) All chemicals were obtained from Alfa Aesar, Oakwood Chemical, Ark Pharm, ThermoFisher Scientific, and Sigma-Aldrich. They were used without further purification. Flash chromatography was performed using a Biotage Horizon with silica gel (SiliaFlash P60) purchased from SiliCycle. ^1H and ^13C NMR spectra were gathered on a Bruker DRX-400 in either DMSO-d6 or CDCl3. High-resolution mass spectra were measured using a ThermoScientific Q Exactive Orbitrap equipped with a Nano ESI ionization source. Absorption spectra were recorded using a Shimazdu UV-1800 UV-Vis spectrophotometer using samples contained in 10×10 mm quartz cell at a concentration of 0.01 mM. Fluorescence spectra were gathered on a Shuimazdu RF-5301 PC in a 10×10 mm quartz cuvette.
(§3) The two dyes, upon their successful synthesis and isolation, had their photophysical data gathered beginning with absorbance, which was measured through the visible and ultraviolet region. Absorbance spectra were gathered using 0.01 mM solutions of the respective compound in HPLC grade acetonitrile. The spectra are nearly identical. This was of no surprise as the chromophore is the same on both molecules; however, 9 has a more substantial absorbance than 4 with a respective molar absorptivity of 66,000 M^−1cm^−1 and 51,700 M^−1 cm^−1. The absorbance determination was followed by the fluorescence emission and excitation spectra being gathered using solutions where the absorbance of the respective compound was 0.041 at 250 nm in acetonitrile (FIG. 1). This was done to save material as the same solutions were then used to determine the fluorescent quantum yield. The excitation spectra of 4 and 9 followed the same pattern, though the two were slightly offset from one another when overlaid with respect to the x-axis.

[4] = system: HeLa cells; assay: Metabolic proliferation (MTS) assay, toxicity in HeLa cells; type: cell-based
Method: HeLa cells were cultured in RPMI (ThermoFisher) supplemented with 10% FBS (ThermoFisher) and 1% penicillin-streptomycin (ThermoFisher 10000 U/mL). Cells (5000 cells/well in 100 μL) were plated in a 96-well culture plate (Greiner) and incubated for […]. Fifty microliters of the compound dissolved in complete media (final DMSO concentration 1%) at final concentrations of 100 μM, 10 μM, 1 μM, 100 nM, 10 nM, and 1 nM were added to the appropriate wells. After incubation of the cells at 37° C. in a humidified atmosphere of 5% CO2 for 120 h, the cells were stained and incubated with MTS reagent (Promega) for 2 h to determine cell viability. The absorbance of each well was taken at 490 nm using a multimode plate reader (FlexStation 3, Molecular Devices, San Diego, Calif.). GraphPad Prism was used to analyze data to determine the percent viability. […] Quadruplicate measurements were performed for each compound.
The toxicity of 4 and 9 was determined in HeLa cells. The HeLa cells were treated with concentrations of the respective dye varying between 1 nm and 100 μM for 72 hours.

[5] = Fluorescence excitation/emission spectra and fluorescent quantum yield (single point method, naphthalene standard); type: physicochemical; conditions: for λex (excitation maxima): Measured in CAN; for λem (emission maxima) / φ (fluorescent quantum yield, single point method): Measured in CAN (acetonitrile); for φ (fluorescent quantum yield, single point method): naphthalene standard, absorbance 0.041 at 250 nm
Method: as §2, §3
The fluorescent quantum yield was then determined by the single point method with Eq. 1.
Naphthalene was used as the standard where it was also made into a solution with acetonitrile at a concentration which allowed the absorbance to be 0.041 at 250 nm. The fluorescent quantum yields of 4 and 9 were determined to be 0.40 and 0.67, respectively.

[6] = 100 μM, 72 hours (FIG. 4: 120 h)
[7] = concentrations needed for standard imaging protocols (range 1 nm to 100 μM), 72 hours

Row | log εmax (maximum molar extinction coefficient) [3] | molar absorptivity [3] | λabs (absorbance maxima) [3] | Stokes Shift [5] | λex (excitation maxima) [5] | λem (emission maxima) [5] | φ (fluorescent quantum yield, single point method) [5] | Structure (SMILES) | cellular localization [1] | Pearson correlation coefficient with CellMask Orange [1] | distribution of emission in the cell [2] | toxicity [4, 6] | toxicity [4, 7]
1 | 3.71 M^−1 cm^−1 | 51,700 M^−1cm^−1 | 244 nm | 38 nm | 244 nm | 359 nm | 0.4 | O=C(O)CCCc1ccc2c(c1)-c1ccccc1S2(=O)=O [Compound 4, 4-(5,5-dioxidodibenzo[b,d]thiophen-2-yl)butanoic acid] | localize in the plasma membrane | 0.66 | stronger emission from the center of the cell | display toxicity | neither dye displayed toxicity
2 | 3.81 M^−1 cm^−1 | 66,000 M^−1cm^−1 | 247 nm | 38 nm | 248 nm | 357 nm | 0.67 | CCCCCCCCc1ccc2c(c1)-c1cc(CCCC(=O)O)ccc1S2(=O)=O [Compound 9, 4-(8-octyl-5,5-dioxidodibenzo[b,d]thiophen-2-yl)butanoic acid] | localize in the plasma membrane | 0.81 | more extranuclear emission | display toxicity | neither dye displayed toxicity
